Data reported in BindingDB's records for PubMed 11454901 (Shionogi, 2001).

Target: T1, Prostaglandin-H2 D-isomerase (Sus scrofa, UniProt Q29095)
T1 sequence (Q29095 whole entry): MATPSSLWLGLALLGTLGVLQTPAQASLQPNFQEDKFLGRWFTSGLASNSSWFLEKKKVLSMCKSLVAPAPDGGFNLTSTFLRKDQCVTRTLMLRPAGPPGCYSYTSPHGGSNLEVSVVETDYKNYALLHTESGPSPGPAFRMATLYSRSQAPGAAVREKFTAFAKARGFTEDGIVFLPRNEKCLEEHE

| Ki | Structure (SMILES) |
| --- | --- |
| 193 nM | CC1(C)[C@H]2C[C@H](C/C=C\CCCC(=O)O)[C@@H](NC(=O)c3csc4ccc(O)cc34)[C@@H]1C2 |
| 0.49 nM | O=C(O)CCC/C=C\C[C@@H]1C(NS(=O)(=O)c2ccccc2)C2CC[C@@H]1C2 (single isomer, unassigned; (+)) [S 145] |
